Several values for one entry are separate records, joined by “and”; a condition that tells them apart may be missing. Equal entries are not always repeated. Where two headings read alike, the source gives them in different places.

Experimental findings from paper PMC10287695, “Non-covalent inhibitors of thioredoxin glutathione reductase with schistosomicidal activity in vivo” (Nature Communications, 2023) are described below.

The subject of data set [1] is S. mansoni juvenile worms (21 days). Briefly: Schistosomicidal activity ex vivo, juvenile worms (21 days). Format: cell-based. As to conditions: for viability at 5 µM / viability at 15 µM / viability at 30 µM: Schistosoma mansoni, 23 day S. mansoni worms, 48 HR; for viability at 5 µM: Conc. 5 µM; for viability at 15 µM: Conc. 15 µM; for viability at 30 µM: Conc. 30 µM; for LD50 ex vivo S. mansoni 21 days: juvenile worms, 48 h exposure. As for the experimental part: Three-week old, female Swiss-Webster mice obtained from the Charles River were housed in the Comparative Research Center of Rush University Medical Center. Mice were infected by percutaneous tail exposure to about 200 S. mansoni or 50 S. japonicum cercaria for adult worms and about 1000 cercaria for juvenile S. mansoni worms through natural transdermal penetration of the cercariae for 1 h[81].
DMSO formulated compounds were diluted with phenol red free M199 medium or RPMI medium for NTS or juvenile and adult worms, respectively, at <1% DMSO final concentrations. NTS, juvenile and adult worms from overnight cultures were tested against compounds in triplicate. Controls were treated with DMSO alone or 5 µM AF as a positive control in appropriate medium. […] Schistosome viabilities in the presence of the compounds were assessed using this formula: % Viability = Averages of Test / Averages of DMSO Control x 100.

Data set [2] can be described thus: Cytotoxicity in mammalian cells (Cell Titer Glo). The class given is cell-based. As to conditions: African green monkey, Vero cells. On the procedure: Following overnight incubation, formulated DMSO-compound stock solutions were diluted with DMEM at <1% DMSO final concentrations. […] Vero cells treated similarly with different concentrations of PZQ, MZM and AF (Cayman Chemicals) were used as positive controls.
(In general: In ATP-based viability assays light output follows the ATP content of the culture.)

Another data set has as its target T1, PfTrxR (Plasmodium falciparum, UniProt Q25861).
T1 construct: 6-His (N); made in house; host or cells: E. coli BL21 (DE3)
T1 sequence (Q25861 1-541): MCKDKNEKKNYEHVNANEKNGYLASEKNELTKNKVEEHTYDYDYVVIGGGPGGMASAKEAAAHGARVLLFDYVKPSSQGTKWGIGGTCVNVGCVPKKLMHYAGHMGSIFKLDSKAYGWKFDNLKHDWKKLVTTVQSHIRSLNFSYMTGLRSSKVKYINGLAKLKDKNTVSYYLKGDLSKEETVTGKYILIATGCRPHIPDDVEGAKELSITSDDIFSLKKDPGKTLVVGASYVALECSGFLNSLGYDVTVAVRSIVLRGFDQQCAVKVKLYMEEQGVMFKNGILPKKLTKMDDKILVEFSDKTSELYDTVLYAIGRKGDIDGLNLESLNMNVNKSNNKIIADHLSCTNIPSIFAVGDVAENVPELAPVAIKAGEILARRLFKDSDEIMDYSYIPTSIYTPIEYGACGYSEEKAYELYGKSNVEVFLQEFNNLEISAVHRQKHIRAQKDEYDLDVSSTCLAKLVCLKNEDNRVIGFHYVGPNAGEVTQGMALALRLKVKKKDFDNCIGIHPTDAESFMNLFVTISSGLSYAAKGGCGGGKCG
Briefly: P. falciparum TrxR enzyme inhibition. The class given is biochemical. As to conditions: for PfTrxR % inhibition at 50 µM: the highest concentration tested. As for the experimental part: Recombinant TGR, human TrxR1, B. malayi (Bm)TrxR and human GR proteins were expressed and purified as described[20],[69],[79]. The codon optimized sequence for P. falciparum (PfTrxR, https://www.ncbi.nlm.nih.gov/protein/CAA60574.1/) with an N-terminal 6-His tag was synthesized and inserted into pET15b (GenScript) and expressed in BL21 (DE3) cells and purified as described for human GR[20]. TGR and TrxR enzyme inhibition assays were performed in triplicate at 25 °C as described[20] in 0.1 M potassium phosphate (pH 7.4), 10 mM EDTA, 100 µM NADPH and 0.01% Tween-20. TGR, human TrxR1 and BmTrxR (all at 4 nM) and PfTrxR (50 nM) were preincubated with the compounds for 15 min. The reaction was started with addition of an equal volume of DTNB (6 mM) and NADPH (100 µM) and the increase in A412 during the first 3 min was recorded. […] The reaction was preincubated for 15 min. Activity was initiated with the addition of 1 mM GSSG and 100 μM NADPH and initial rates of NADPH oxidation were monitored at 340 nm. The reactions were done in triplicate. The IC50 was calculated in GraphPad Prism.

The next data set concerns the target T2, TGR (Schistosoma mansoni, UniProt Q962Y6).
T2 construct: made in house
T2 sequence (Q962Y6 1-598): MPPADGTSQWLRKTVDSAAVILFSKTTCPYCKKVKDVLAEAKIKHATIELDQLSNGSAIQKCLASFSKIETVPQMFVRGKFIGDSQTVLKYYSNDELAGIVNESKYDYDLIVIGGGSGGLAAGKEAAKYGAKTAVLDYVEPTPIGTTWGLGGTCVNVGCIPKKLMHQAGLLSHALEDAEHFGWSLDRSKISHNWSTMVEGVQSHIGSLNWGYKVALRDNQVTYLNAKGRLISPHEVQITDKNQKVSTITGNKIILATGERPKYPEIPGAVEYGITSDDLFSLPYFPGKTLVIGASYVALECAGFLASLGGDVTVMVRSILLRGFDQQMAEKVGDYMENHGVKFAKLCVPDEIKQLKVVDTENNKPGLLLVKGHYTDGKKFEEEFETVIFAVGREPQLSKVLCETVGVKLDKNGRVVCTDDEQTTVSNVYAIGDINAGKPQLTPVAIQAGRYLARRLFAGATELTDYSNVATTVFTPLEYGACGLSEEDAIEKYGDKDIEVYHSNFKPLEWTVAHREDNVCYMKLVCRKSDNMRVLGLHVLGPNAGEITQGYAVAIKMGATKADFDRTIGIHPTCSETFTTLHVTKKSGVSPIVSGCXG
Briefly: Reversibility by jump dilution. The class given is biochemical. Particulars: for % Activity (ID list), D60 / % Inhibition (ID list), D60: D60: diluted 1:100, activity determined after 60 min; for Inhibitor (rate), 0 min / % Activity, 0 min: [0, D0]: 15 min preincubation inhibitor + TGR + NADPH, diluted 1:100, then activity determined immediately; for Inhibitor (rate), 0 min / Inhibitor (rate), 60 min / Inhibitor (rate), -15: raw rate; for % Activity, 0 min / % Activity, 60 min / % Activity, -15: relative to DMSO; for Inhibitor (rate), 60 min / % Activity, 60 min: [60, D60]: 15 min preincubation inhibitor + TGR + NADPH, diluted 1:100, then activity determined after 60 min; for Inhibitor (rate), -15 / % Activity, -15: [-15]: 15 min preincubation inhibitor + TGR + NADPH, then activity determined, replicates; for % Activity (ID list) / % Inhibition (ID list): before dilution (-15). On the procedure:
A reaction of 370 nM TGR, 100 µM NADPH, and 250 µM inhibitor was incubated for 15 min at room temperature. A 100x dilution of the reaction was made and the activity was determined immediately and after 60 min.

The mark [3] stands for this setting: D0: diluted 1:100, activity determined immediately, list for plotting.
The mark [4] stands for this setting: read-out: PfTrxR % inhibition at 50 µM.

In the case of `CCc1ccccc1-c1nc(CN[C@@H]2C[C@@H]3C[C@H]([C@H]2C)C3(C)C)c(C)o1` [Compound 2], in data set [1], the viability at 5 µM is 57%, the viability at 15 µM was 9.68%, the viability at 30 µM stood at 0.112% and the “LD50 ex vivo S. mansoni 21 days” value came to 7.2 ± 0.30 µM. This compound also had a viability at 24 h, 5 µM in data set [2] (Conc. 5 µM) of 99.8%. In data set [2] (Conc. 10 µM), this compound registered a viability at 24 h, 10 µM of 98.9%. The same compound had a viability at 24 h, 25 µM in data set [2] (Conc. 25 µM) of 95.6%. Further, in data set [2] (Conc. 35 µM), the viability at 24 h, 35 µM was 75.4%. Moreover, the viability at 24 h, 50 µM in data set [2] (Conc. 50 µM) came to 53.1%. At PfTrxR, the inhibition at 10 µM was -8.06%, the inhibition at 25 µM was -45.1%, the inhibition at 50 µM was -32.7% and the “PfTrxR % inhibition at 50 µM” value was “n.i”.
`Cc1oc(-c2ccccc2)nc1CN[C@@H]1C[C@@H]2C[C@H]([C@H]1C)C2(C)C` [Compound 3]: in data set [1], the viability at 5 µM amounted to 66%, the viability at 15 µM was 43.1%, the viability at 30 µM worked out at 32.1% and the “LD50 ex vivo S. mansoni 21 days” value is given as 10.9 ± 0.39 µM. Also, the “% Activity (ID list), D0” value at TGR (setting [3]) was 107.0% and 101.9% and 120.0%. On TGR (list for plotting), the “% Activity (ID list), D60” value is 112.2%; the “% Inhibition (ID list), D60” value was -12.2% and -2.4% and -4.0%; the “% Activity (ID list)” value is 38.4% and 40.1%; the “% Inhibition (ID list)” value is 61.6367% and 59.8837% and 55%. Besides, on TGR, the “Inhibitor (rate), 0 min” value is 0.04937 and 0.04787 and 0.05217; the “% Activity, 0 min” value was 106.977% and 101.851% and 120.346%; the “Inhibitor (rate), 60 min” value is 0.04847 and 0.05055 and 0.05088; the “% Activity, 60 min” value is 112.121% and 113.417% and 109.021%. Further, at TGR, the “Inhibitor (rate), -15” value is 0.01322 and 0.01449; the “% Activity, -15” value was 38.3633% and 40.1163%. Moreover, the inhibition at 50 µM on PfTrxR (setting [4]) turned out to be 12%.
As to `Cc1oc(C2CCCCC2)nc1CN[C@@H]1C[C@@H]2C[C@H]([C@H]1C)C2(C)C` [Compound 4], in data set [1], the viability at 5 µM stood at 65.7%, the viability at 15 µM was 45.3%, the viability at 30 µM was 27.7% and the “LD50 ex vivo S. mansoni 21 days” value amounted to 14.2 ± 2.13 µM. Besides, the “% Activity (ID list), D0” value on TGR (setting [3]) is 102.5% and 102.9% and 117.3%. Besides, at TGR (list for plotting), the “% Activity (ID list), D60” value amounted to 106.3%; the “% Inhibition (ID list), D60” value was -15.2% and -8.7% and -6.3%; the “% Activity (ID list)” value was 35.2% and 34.1% and 34.4%; the “% Inhibition (ID list)” value was 64.8% and 65.9% and 65.6%. For the same compound, on TGR, the “Inhibitor (rate), 0 min” value was 0.04729 and 0.04838 and 0.05087; the “% Activity, 0 min” value was 102.47% and 102.936% and 117.347%; the “Inhibitor (rate), 60 min” value is 0.04596 and 0.04643 and 0.04838; the “% Activity, 60 min” value is 106.315% and 104.173% and 103.664%. Also, on TGR, the “Inhibitor (rate), -15” value is 0.01214 and 0.0123 and 0.01219; the “% Activity, -15” value is 35.2293% and 34.0532% and 34.3671%. On PfTrxR, the inhibition at 10 µM came to 1.8%, the inhibition at 25 µM was 4.57% and the inhibition at 50 µM was determined as 18.1%. The inhibition at 50 µM on PfTrxR (setting [4]) turned out to be 18%.
As for `Cc1oc(-c2ccc3ccccc3c2)nc1CNC1CCCCCC1` [Compound 5], in data set [1], the viability at 5 µM was determined as 65.4%, the viability at 15 µM came out at 52.1%, the viability at 30 µM was 36.8% and the “LD50 ex vivo S. mansoni 21 days” value was found to be 16.9 ± 2.80 µM. In addition, at TGR (setting [3]), the “% Activity (ID list), D0” value was 94.7% and 95.5% and 104.1%; the “% Inhibition (ID list), D0” value is 5.3% and 4.5% and -4.1%. Further, on TGR (list for plotting), the “% Activity (ID list), D60” value is 114.3% and 110.2%; the “% Inhibition (ID list), D60” value is -11.2% and -14.3% and -10.2%; the “% Activity (ID list)” value was 52.7% and 50.0% and 51.6%; the “% Inhibition (ID list)” value was 47.3% and 50.0% and 48.4%. Further, at TGR, the “Inhibitor (rate), 0 min” value is 0.0437 and 0.04487 and 0.04514; the “% Activity, 0 min” value is 94.6912% and 95.4681% and 104.129%; the “Inhibitor (rate), 60 min” value was 0.04807 and 0.05093 and 0.05141; the “% Activity, 60 min” value was 111.196% and 114.27% and 110.156%. Moreover, on TGR, the “Inhibitor (rate), -15” value was 0.01816 and 0.01807 and 0.01832; the “% Activity, -15” value is 52.6988% and 50.0277% and 51.6493%. Besides, at PfTrxR, the inhibition at 10 µM is -1.11%, the inhibition at 25 µM is -0.0146%, the inhibition at 50 µM is -1.37% and the “PfTrxR % inhibition at 50 µM” value was “n.i”.
`CC1C(NCc2cn(C3OCC(O)C(O)C3O)c3ccccc23)CC2CC1C2(C)C` (centres unmarked) [Compound 9] yielded a viability at 24 h, 5 µM in data set [2] (5 µM, relative to untreated control) of 92.7%. Further, the viability at 24 h, 10 µM in data set [2] (10 µM, relative to untreated control) was 90.7%. Moreover, the viability at 24 h, 25 µM in data set [2] (25 µM, relative to untreated control) is 89.9%. In data set [2] (35 µM, relative to untreated control), this compound registered a viability at 24 h, 35 µM of 89.6%. The same compound returned a viability at 24 h, 50 µM in data set [2] (50 µM, relative to untreated control) of 83.5%. In addition, at PfTrxR, the inhibition at 10 µM is 6.78%, the inhibition at 25 µM came out at 8.79% and the inhibition at 50 µM worked out at 16.2%. Also, the inhibition at 50 µM at PfTrxR (setting [4]) is 16%.

As a reminder, the viability is the share of living cells, or the viability signal relative to a control. A higher viability goes with less harm to the cells. By inhibition is commonly meant the relative decrease from the control value, in per cent.
